In patent US20110098325A1, “PYRIDINE BENZAMIDES AND PYRAZINE BENZAMIDES USED AS PKD INHIBITORS” (CANCER RESEARCH TECHNOLOGY LIMITED, priority 2006, published 2011) one finds IC50 data, which are given here for three compounds.

“And” between values parts separate entries of the source, which are not always exact repeats. Equal entries are not always repeated.

The assay deals with T1, Murine PKD1 kinase domain (Mus musculus, UniProt Q62101).
T1 construct: hexahistidine (pFastBac HTb leader) (N); made in house; host or cells: Sf9 insect cells, baculovirus (Bac-to-Bac HT, pFastBac HTb)
T1 sequence (Q62101 with tags, fused parts or gaps R683W): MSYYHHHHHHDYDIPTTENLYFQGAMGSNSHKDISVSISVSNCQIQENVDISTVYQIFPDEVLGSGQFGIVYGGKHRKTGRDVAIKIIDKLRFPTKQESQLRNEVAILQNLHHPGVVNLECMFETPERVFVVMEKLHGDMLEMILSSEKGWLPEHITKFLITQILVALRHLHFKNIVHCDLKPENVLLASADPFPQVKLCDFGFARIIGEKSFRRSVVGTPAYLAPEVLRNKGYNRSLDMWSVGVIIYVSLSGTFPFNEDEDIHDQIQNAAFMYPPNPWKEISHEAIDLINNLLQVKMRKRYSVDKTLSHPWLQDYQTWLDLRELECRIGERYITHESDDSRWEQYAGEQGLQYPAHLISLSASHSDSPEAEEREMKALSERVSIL
The assay is described as follows: PKD1 (Murine Kinase Domain) Enzyme Activity Assay (IMAP fluorescence polarisation). The conditions noted are these: 10 μM ATP, 60 minutes, room temperature. It counts as biochemical.

Compound `COc1cc(-c2cncc(-c3cccc(C(=O)NCCN(C)C)c3)n2)ccc1O` [X-007, N-(2-Dimethylamino-ethyl)-3-[6-(4-hydroxy-3-methoxy-phenyl)-pyrazin-2-yl]-benzamide] gave an IC50 of less than 1000 nM. As to `COc1cc(-c2nc(-c3cccc(C(=O)NCCN(C)C)c3)cnc2N)ccc1O` [X-017, 3-[5-Amino-6-(4-hydroxy-3-methoxy-phenyl)-pyrazin-2-yl]-N-(2-dimethylamino-ethyl)-benzamide], the 50% inhibitory concentration (IC50) is < 1000 nM and 12 nM. Regarding `COc1cc(-c2cc(-c3cccc(C(=O)NCCN(C)C)c3)cnc2N)ccc1O` [Y-059, 3-[6-Amino-5-(4-hydroxy-3-methoxy-phenyl)-pyridin-3-yl]-N-(2-dimethylamino-ethyl)-benzamide], the IC50 was < 1000 nM and 8.5 nM.
